Measured values: US8338333B1, “Methods for controlling weeds including kudzu” (priority 2009, dated 2012)

Key:
kudzu [1] = conditions: thirteen applications over a five year period; cited from earlier work
kudzu [2] = assay: Field trial (Holcomb): kudzu regrowth, green biomass dry weight per plot; type: in vivo, Pueraria montana (Lour.) Merr. variety lobata (Willd.); conditions: 6 WAT, applied mid September at maximum labeled rates, untreated control .81, Lsd .41
Source text: Field trials: Uniform areas of land infested with kudzu were identified in Holcomb and Yazoo City, Miss. Plots were one by two meters separated by a narrow strip to prevent cross-contamination of herbicides in Holcomb. Plots were three by three meters in Yazoo City. Herbicides were applied with an hand held boom sprayer equipped with a Teejet 8002 EVS flat fan nozzles, adjusted to 207 kPa, and applied at 1.3 m/s in a single pass to deliver 61.2 L/ha to the treatment areas. Commercial formulations of herbicides were applied at their maximum labeled rates. Herbicides were applied to both sites in mid September. In Holcomb, vegetation within a 0.3 m^2 area of each test plot was harvested at 6 weeks after treatment. Green plant matter was collected and dried as an estimate of above-ground healthy biomass. Biomass of treated plots was compared to untreated plots to determine percent control. In Yazoo City, the percentage reduction in leaf cover was determined by counting the number of leaves intersected by a grid containing 100 intersections (at 10 centimeter intervals) per one meter square.
Translocation of herbicides to roots is vital to achieving control of established perennial species like kudzu having deep root systems and a high capacity for regrowth. Other weeds such as redvine, silverleaf nightshade, and yellow and purple nutsedge with deep perenniating underground structures may also be more easily controlled. Without being bound by theory, the field application occurred in September when carbon allocation in kudzu shifts to root reserve replenishment which could facilitate herbicide translocation and may account for the greater activity of the combination of trifloxysulfuron and glyphosate on suppressing regrowth.

kudzu [3] = assay: Greenhouse trial: kudzu control by reduction of above-ground green biomass; type: in vivo, Pueraria montana (Lour.) Merr. variety lobata (Willd.); conditions: 2 WAT, vs untreated plants, dry weight basis, rate (units/A) differs per treatment as in Table 1
Method: (§1) Greenhouse trials: Kudzu was established from seed in flats containing a 2:3 (w:w) mixture of soil (Bosket silt clay loam, fine-silty, mixed thermic Aeric Ochraqualf) and potting media. Seedlings were transferred to 10 cm diameter pots containing the same soil mixture when they developed two true leaves. Pots were placed in the greenhouse, set at 30°±2° C., and equipped with supplemental lighting to provide a 14-h photoperiod. Pots were irrigated as needed and fertilized every three weeks with slow release Osmocote® fertilizer at 1.5 g/pot. […] Plants were selected for size uniformity from a population of approximately three times that necessary to establish a test.
(§2) Herbicides were applied with a pneumatic track sprayer with a TeeJet 8002 flat-fan nozzle delivering 187 L/ha water at 179 kPa. The rates utilized in this study were based on the allowable rates according to the label of the herbicide containers. Kudzu was evaluated for herbicide injury expressed as the percentage of above-ground green biomass remaining at 2 weeks after treatment (WAT) compared to untreated plants (control) on a dry weight basis. Treatments were arranged in a randomized complete block design with four replications and the experiment was repeated. Data were analyzed using the Proc Mixed procedure in SAS and means were separated using a Fisher's Protected least significant difference (LSD) at P=0.05.
In greenhouse studies, shoot biomass was determined at 2 WAT. […] For those skilled in the art of weed control, enhanced control resulting from glyphosate and an ALS inhibitor would not be expected. […] Those with high initial activity against kudzu may provide suitable kudzu control when mixed with glyphosate.

kudzu [4] = assay: Glyphosate and trifloxysulfuron at reduced rates on kudzu (Example 2); type: in vivo, Pueraria montana (Lour.) Merr. variety lobata (Willd.)
Method: as §1, §2
The labeled recommended rate of glyphosate for kudzu control was 80 to 106 ounces per acre which was well above the rates tested herein. In Table 2 the rates were 8, 16 and 22 oz formulated glyphosate (WeatherMax™) per acre with trifloxysulfuron at 4.25 grams per acre. The ability to achieve control of kudzu at reduced rates of herbicide was a further indication that a unique effect was observed and allowed control using less pesticide.

mature kudzu vines = assay: Field: post-emergence application to mature kudzu stands (FIG. 4); type: in vivo, Pueraria montana (Lour.) Merr. variety lobata (Willd.); conditions: 3 WAT, single post-emergence application, rates per Table 4
Source text: The labeled recommended rate of glyphosate, for kudzu control was 80 to 106 ounces per acre which was well above the rates tested herein. ALS inhibitors were used at label rates. Post-emergence applications of the treatments listed in Table 4 were made to mature kudzu stands growing over a Bermuda grass turf. […] When ALS inhibitors were applied alone, less than 10% control was observed 3 WAT, whereas glyphosate alone provided less than 26% control.

Row | Structure (SMILES) | Kudzu Regrowth Gram dry wgt per plot (kudzu [2]) | Control (%), kudzu control based on percent reduction of above-ground green biomass (kudzu [3]) [%] | also measured
1 | O=C(O)COc1cc(Cl)c(Cl)cc1Cl [2,4,5-trichlorophenoxyacetic acid] |  |  | killing of all kudzu crowns (kudzu [1]): not successful in killing all crowns
2 | CCNc1nc(Cl)nc(NC(C)C)n1 [atrazine] | .59 Gram dry wgt per plot |  | 
3 | CCOc1nc(F)cc2nc(S(=O)(=O)Nc3c(Cl)cccc3C(=O)O)nn12 [chloransulam] |  | 11 | 
4 | COc1cc(Cl)nc(NC(=O)NS(=O)(=O)c2ccccc2C(=O)O)n1 [chlorimuron] |  | 0 | 
5 | O=C(O)CNCP(=O)(O)O [glyphosate] | .52 Gram dry wgt per plot |  | Kudzu Control (%) (kudzu [4]; glyphosate 0.35 lb./A alone): 33%; Kudzu Control (%) (kudzu [4]; glyphosate 0.7 lb./A alone): 95%; Kudzu Control (%) (kudzu [4]; glyphosate 1 lb./A alone): 97%; control of mature kudzu (mature kudzu vines): less than 26%
6 | CSc1nnc(C(C)(C)C)c(=O)n1N [metribuzin] | .51 Gram dry wgt per plot |  | 
7 | COc1nc(C)nc(NC(=O)NS(=O)(=O)c2ccccc2C(=O)O)n1 [metsulfuron] |  | 87 | 
8 | COc1cc(OC)nc(NC(=O)NS(=O)(=O)c2ncccc2OCC(F)(F)F)n1 [trifloxysulfuron] |  | 93 | Kudzu Control (%) (kudzu [4]; trifloxysulfuron 4.25 g/A alone): 72%
